Consider five compounds from patent US7429557B2, “Replacement solvents having improved properties and methods of using the same” (Mainstream Engineering Corporation, priority 2005, dated 2008).

In one series the test system is Chinese hamster. The series is described as follows: In vitro genotoxicity. Particulars: in vitro Chinese hamster oocytes. The text has this:
(§1) Skin irritation is also an important consideration for a solvent.

Series [1] is described as follows: Coated metal coupon cleaning, gravimetric. The settings on record: Krytox, 15 minute immersion, 15 mL. The method, then: (§2) A sample comprising 25 volume percent (A.) 4-bromo-3-chloro-3,4,4-trifluoro-1-butene and 75 volume percent (B.) 1-chloro-2,2,2-trifluoroethyl difluoromethyl ether was added to several beakers, each containing a metal coupon completely coated with one of the following materials: Mil Spec 83282 hydraulic oil, Mil Spec 7808 engine oil, Krytox fluorocarbon grease and Mil Spec 81322 aviation grease. Two batches were subjected to 15 minute immersion with 15 mL of solvent mixture but one was exposed to ultrasonic vibrations and the other kept static. Afterwards, the coupons were removed and weighed for gravimetric analysis.
as §2, with “50” for “25”, “50” for “75”
(§3) Two batches were subjected to 15 minute immersion with 15 mL of solvent mixture but one was exposed to ultrasonic vibrations and the other kept static. Afterwards, the coupons were removed and weighed for gravimetric analysis.
The compounds (A) 4-bromo-3-chloro-3,4,4-trifluoro-1-butene and (B) 1-chloro-2,2,2-trifluoroethyl difluoromethyl ether, were mixed 50:50 by volume and tested to remove Krytox. The individual components, A and B, remove 17.0% and 98.7%, respectively, of this contaminant after 15 min. with ultrasonic treatment. The mixture removed 99.3% of the same contaminant under the same conditions.

Another series in a line: LD50. The settings on record: in vivo.
Description: Toxicity is yet another factor which must be considered when selecting second-generation replacement solvents. Parameters such as the lethal dose 50 (LD50), lethal concentration 50 (LC50), cardiac sensitization, skin irritation, and mutagenicity (e.g., via the Ames test) can be used as measures. LDn or LCn abbreviation, where n is the percent lethality, is used for the dose of a toxicant lethal to n % of a test population. […] Cardiac sensitization is a measure of the ability of a compound to cause cardiac arrhythmia under stress.
as §1

The nature of a further series: Ames mutagenicity assay.
Description: as §1

Another series in a line: Skin irritation. The settings on record: in vivo.
Description: as §1

A short description of series [2]: Coated metal coupon cleaning, gravimetric. Particulars: 15 minute immersion, 15 mL. As to the method:
as §2
as §2, with “50” for “25”, “50” for “75”
as §3

The conditions of series [3]: listed; cited from earlier work.

Where two headings read alike, the source gives them in different places.

Turning to `C=CC(F)(Cl)C(F)(F)Br` (stereo not drawn) [A, 4-bromo-3-chloro-3,4,4-trifluoro-1-butene], the genotoxicity result in the series on Chinese hamster is recorded as “not genotoxic”. Moreover, the percent contaminant removed in series [1] (Ultrasonic) is on record as 17.0%. Besides, in “LD50”, the LD50 is > 40000 mg/kg. Besides, the Ames mutagenicity assay entry in “Ames mutagenicity assay” is “negative”. The skin irritation result in “Skin irritation” was “moderate to non-irritants”.
For the compound `FC(F)(Cl)C(F)(Cl)Cl` [CFC-113, 1,1,2-trichloro-1,2,2-trifluoroethane], the percent contaminant removed in series [1] (Static) was 36.2%; in series [1] (Ultrasonic), 97.7%; in series [2] (7808 oil, Static) it was 100%; in series [2] (7808 oil, Ultrasonic) it was 99.2%; in series [2] (81322 grease, Static) it was 24.1%; in series [2] (81322 grease, Ultrasonic), 94.8%. Also, the percent contaminant removed in series [2] (83282 oil, Static) came to 100%; in series [2] (83282 oil, Ultrasonic) it was 100%. In addition, the skin irritation entry in series [3] was “mild irritant”.
As for `FC(F)OC(Cl)C(F)(F)F` (stereo not drawn) [Compound B, 1-chloro-2,2,2 trifluoroethyl difluoromethyl ether], the genotoxicity entry with Chinese hamster was “not genotoxic”. In series [1] (Ultrasonic), this compound had a percent contaminant removed of 98.7%. The compound also returned an LD50 in the series “LD50” of 8100 mg/kg. The Ames mutagenicity assay entry in the series “Ames mutagenicity assay” was “negative”. Besides, the skin irritation result in the series “Skin irritation” is given as “moderate to non-irritants”.
On to `FC(F)OC(F)(F)C(F)Cl` (stereo not drawn) [Compound C, 2-chloro-1,1,2-trifluoroethyl difluoromethyl ether], for which, in the series with Chinese hamster, the genotoxicity result is “not genotoxic”. Further, in the series “LD50”, the LD50 turned out to be 13000 mg/kg. Besides, in “Ames mutagenicity assay”, the Ames mutagenicity assay result is “negative”. In addition, the skin irritation entry in the series “Skin irritation” is “moderate to non-irritants”.
In the case of `COC(C(F)(F)F)C(F)(F)F` [E, methyl 2,2,2-trifluoroethyl-1-(trifluoromethyl)ether], in the series on Chinese hamster, the genotoxicity result is on record as “not genotoxic”. Also, the 50% lethal dose (LD50) in “LD50” was > 40000 mg/kg. For the same compound, the Ames mutagenicity assay entry in the series “Ames mutagenicity assay” is reported as “negative”. The skin irritation entry in the series “Skin irritation” is on record as “moderate to non-irritants”.

As a reminder, the LD50 is the dose expected to kill half of the subjects tested.
